Reference: a melting point compilation (Tetko et al.; mined from patent text by program, amines drawn as free bases though some values may be those of a salt)

melting point [°C]	SMILES
99 to 100	COc1ccc(N2CCOCC2)c2sc(C(=O)O)nc12
282	CC1CCCC(Cc2c[nH]c3c(=O)[nH]c(N)nc23)C1 (stereo unspecified)
270	CCOC(=O)c1cn(C)c2cnc3cc(N4CCCC4)c(F)cc3c2c1=O
130 to 131	CNC(=O)c1cc(-c2ccc(SC)cc2)nn(CC(C)C)c1=O
122	Cn1c(=N)sc2ccccc21
193 to 196	CC(C)c1ccccc1N1CCS/C1=N/N=C\c1ccc(-c2ncn(-c3ccc(OC(F)(F)F)cc3)n2)cc1
202 to 204	CC1(C)c2ccc([N+](=O)[O-])cc2[C@@H](NC(=O)NCc2ccccc2)[C@@H]1O (relative stereo)
96	O=S1(=O)Nc2cccc3c2N1CCC3
122 to 124	c1cnc(C2CC(c3cnccn3)CC(c3cnccn3)C2)cn1 (stereo unspecified)
100 to 102	CC(C)N(CCN1C(=O)C(=O)c2cc(F)ccc21)C(C)C
140 to 141	CC(C)(C)C(=O)SC[C@H](NC(=O)C(C)(C)SC(=O)C(C)(C)C)C(=O)O
106	O=C(c1ccc([N+](=O)[O-])c(O)c1)N1CCOCC1
122 to 123	CC(C)[Si](C(C)C)(C(C)C)C1c2ccccc2-c2ccccc21
223 to 224	CCOc1ccc(Nc2nnc(Cc3ccncc3)c3ccccc23)cc1
163 to 166	COc1cc(OC)nc(NC(=O)NS(=O)(=O)c2ccccc2CCBr)n1
165 to 167	Fc1ccccc1[C@@H]1Cc2cnc(Nc3cccc(CCN4CCNCC4)c3)nc2-c2ccccc21
148 to 149	COc1ccc(S(=O)(=O)Nc2ccccc2NC(=O)c2ccc(OCc3ccccc3)cc2)cc1
142 to 145	Cc1cc(-c2cc(N)ccc2F)cc(C)n1
135	Fc1ccc2c(c1)nc(CC(F)(F)F)n2C1CCNCC1
132 to 134	O=C(O)c1ccc(NCc2cc(Br)ccc2CCc2ccccc2)cc1
133 to 135	CCCN(CCC)Cc1cnc(-c2ncn3c2[C@@H]2CCN2C(=O)c2sccc2-3)o1
64 to 66	CC(=O)CCCCCCC(=O)c1ccc(OCc2ccccc2)c(OCc2ccccc2)c1
185 to 189	CC(C)(C)c1cc(C(=O)N2CC(O)C2)cc(C(C)(C)C)c1O

melting point [°C]	SMILES
91 to 93	CCCCCCCCCCCCCCOc1cc(OCCCOc2ccc(O)cc2)cc(C(=O)O)c1
114 to 116	Cc1cnc(Cn2ncc(-c3ccc(S(C)(=O)=O)cc3)c(-c3ccc(F)cc3)c2=O)s1
201 to 203	CNc1nc(-c2ccc(-c3ccccc3)s2)c2cc(OC)c(OC)cc2n1
116	CN(C1CCNCC1)S(=O)(=O)c1ccc(Nc2nccc(-c3ccc(F)cc3)n2)cc1
110	COC1=CCC2=C(CCC3C2CCC2(C)C(O)CCC32)C1 (stereo unspecified)
79 to 82	COC(=O)c1cc(S(=O)(=O)c2ccc(C)cc2)cc2c1OC(c1ccc(OC)cc1)(c1ccc(OC)cc1)O2
190 to 191	N#Cc1cnc2cc(Br)sc2c1Cl
121 to 123	COC(=O)CC1CCc2cc(O)ccc2C1=O (stereo unspecified)
98	CCCc1nc2c(C(F)(F)F)cccc2c(O)c1C(=O)OCC
251 to 252	COc1ccc2c(c1)c(-c1ccccc1)nc1nnc(C)n12
175 to 176	Cc1cn(C(C)(C)C(=O)N(C)C)nc1-c1ccccc1Cl
90	O=S(CCl)c1ncc(Cl)cn1 (stereo unspecified)
235 to 237	Nc1ccc(Cl)c(C(=O)c2sc(Nc3ccc4nc[nH]c4c3)nc2N)c1Cl
186 to 188	Nc1nnc(N2CCOCC2)s1
140 to 144	Cn1ncnc1COc1nc2c(cc1C1CCC1)nnn2-c1c(F)cccc1F
161 to 165	CC1(C)Cc2c(c(O)cc3c2C(c2cccc(-c4ccc(NC(=O)OCc5ccccc5)cc4)c2)=NCC3(C)C)O1
132 to 135	CCOC(=O)c1ccc(NC)c(C(O)c2ccccc2)c1 (stereo unspecified)
> 360	CCc1cc2[nH]c(=O)c(=O)[nH]c2cc1CC
272 to 276	CC1COc2c(N3Cc4ccc(N)cc4C3)c(F)cc3c(=O)c(C(=O)O)cn1c23 (stereo unspecified)
134 to 135	CCOP(=O)(/C=C/c1cn(-c2ccccc2)nc1OCc1ccc(OCc2nc(-c3ccco3)oc2C)nc1)OCC
209 to 211	O=C(Nc1ccc2cc(CN3CCCCC3)ccc2c1)N1CCC(c2ccc(F)cc2)CC1
151 to 153	Oc1cccc(OCc2ccc3ccccc3n2)c1
228 to 231	COc1cc(Nc2nc3c(s2)CCCC3c2ccccc2)ccc1-c1nc(C)no1 (stereo unspecified)

melting point [°C]	SMILES
169 to 171	Cc1nccn1CC1CC2CCCn3c2c(c2ccccc23)C1=O (stereo unspecified)
273 to 274	Cc1n[nH]c(-c2ccc(Br)cc2)c1NC(=O)c1ccccc1
103 to 105	Nc1cccc(NC(=O)C(=O)N2CCC(Cc3ccccc3)CC2)c1
133 to 135	O=S(=O)(NN=C(Cl)c1cc(Cl)ccc1Cl)c1ccccc1
> 250	N=C(N)c1ccc(C(=O)Nc2cc(C(=O)NCCC(=O)O)ccc2OCc2ccccc2)cc1
115 to 117	COc1cccc(-c2ncc3n2CC(=O)N(C)C3)c1
53 to 56	CCCCCCCc1ccc(C(=O)CCCCC(=O)O)cc1[N+](=O)[O-]
143 to 144	NC(=S)C=Cc1ccc(SC(F)(F)F)cc1
201 to 202	C=C(c1ccccc1)c1ccc2nc(N)n(S(=O)(=O)N(C)C)c2c1
105 to 107	Cn1ncc(C(=O)NC2CC2)c1Cl
278 to 280	O=C1CC(Nc2cc([N+](=O)[O-])ccc2Cl)=NN1c1c(Cl)cc(Cl)cc1Cl
106 to 108	N#CC(Cc1c(Cl)cccc1Cl)C(=O)O (stereo unspecified)
227 to 228	CCCc1nn2ncc(C(=O)OCC)c2n1Cc1ccc(-c2ccccc2-c2nc(=O)o[nH]2)cc1
198 to 199	CC(C)(C)c1cc(CC#Cc2ccc(C(=O)O)cc2)cc(C(C)(C)C)c1O
204 to 205	CC(C)(C)Sc1c(CC(C)(C)C(=O)O)n(Cc2ccc(Cl)cc2)c2ccc(OCc3cccs3)cc12
142 to 143	O=[N+]([O-])c1ccc(Oc2ccc(Oc3ccc(Oc4ccc(Oc5ccc([N+](=O)[O-])cc5)cc4)cc3)cc2)cc1
99 to 101	COCCN1CCN(c2cccc(-c3nc4cc(OC)cc(OC)c4c(=O)[nH]3)n2)CC1
103 to 105	C=Cc1ccc(-n2cnc([N+](=O)[O-])n2)c(C#N)c1
188	COCC(=O)NS(=O)(=O)c1cccc(-c2cccc(-c3cc(-c4ccc(C(F)(F)F)cc4)cc(C)n3)n2)c1
70 to 72	O=C(O)CCCCCC1=CCCC1=O
121 to 122	CCCC(C)(C)C(O)C(c1cccc(Cl)c1)n1cnc(C)c1 (stereo unspecified)
105 to 110	COCCOc1cc2ncc(C#N)c(Nc3ccc4cn[nH]c4c3)c2cc1OCCOC

SMILES	melting point [°C]
O=C(NC(=O)c1ccccn1)NC1CN2CCC1CC2 (stereo unspecified)	202 to 203
CC1(C)OC(=C(C#N)C#N)C(C#N)=C1C=Cc1c(F)c(F)c(N2C3C4CCC(C4)C32)c(F)c1F (stereo unspecified)	233
Clc1cccc(Oc2ccc(N3CCNCC3)nc2)c1	70 to 73
